Laboratory results from article PMC12461331, “Screening of Medicines for Malaria Venture Open Boxes Identifies Potent SARS-CoV‑2 Papain-like Protease (PL^pro) Inhibitors” (ACS Omega, 2025).
Converted amounts (≈) assume the structure as drawn. “And” between values parts separate entries of the source, which are not always exact repeats. Equal entries are not always repeated. Where two headings read alike, the source gives them in different places.

Legend:
Plasma stability = conditions: female, BALB/c, mouse, plasma, pH 7.4
SARS-CoV-2 [1] = conditions: for Data Mode: Hela-ACE2 % Positive SARS-CoV-2; for S0 / Sinf / nHill: Hela-ACE2 % Positive SARS-CoV-2, curve fit
[2] = Human liver microsomal stability assay; conditions: human, liver microsomes, pH 7.4
[3] = Mouse liver microsomal stability assay; conditions: CD1, mouse, liver microsomes, pH 7.4
SARS-CoV-2 [4] = test: microbe, parasite or virus in culture; conditions: for AC50: Severe acute respiratory syndrome coronavirus 2, HeLa-ACE2, read-out: Log AC50 (converted)
physchem [5] = conditions: 25 °C, kinetic from dmso stock
in vitro [6] = conditions: human, uninfected HeLa-ACE2 cells
HeLa-ACE2 cells [7] = conditions: Hela-ACE2 CoV-2 Total Cell count
[8] = female, BALB/c, mouse, 1 h, 2 μM, pH 7.4
[9] = test system: uninfected HeLa-ACE2 cells; conditions: Hela-ACE2 Uninfected Cell Toxicity; for qAC50: relation in column qAC50 Mode, unit not given
HeLa-ACE2 cells [10] = test: cells; conditions: Homo sapiens
in vitro [11] = conditions: human, microsomes, pH 7.4
in vitro [12] = conditions: CD1, mouse, microsomes, pH 7.4
physchem [13] = conditions: pH 7.4
PL^pro = PL^pro (Severe acute respiratory syndrome coronavirus 2, UniProt P0DTD1); conditions: 20 μM compound, 5 μM enzyme, average of triplicates with SD
in vitro [14] = conditions: PAMPA
[15] = human, microsomes
[16] = uninfected HeLa-ACE2 CC50, supplement summary
[17] = uninfected HeLa-ACE2 CC50, uninfected HeLa-ACE2 cells, average of triplicates
[18] = HeLa-ACE2, read-out: HeLa-ACE2 Total cells EC50
[19] = Severe acute respiratory syndrome coronavirus 2, HeLa-ACE2, read-out: SARS-CoV-2 EC50, HeLa-ACE2 cells, average of triplicates
[20] = Severe acute respiratory syndrome coronavirus 2, HeLa-ACE2, read-out: qAC50, Hela-ACE2 % Positive SARS-CoV-2, relation in column qAC50 Mode, unit inferred

Compound	half-life at 2 μM (Plasma stability) [min]	CoV2 Efficacy (delta S0:Sinf) (SARS-CoV-2 [1]; HeLa-ACE2)	Data Mode (SARS-CoV-2 [1])	half-life at 0.5 μM [2] [min]	half-life at 0.5 μM [3] [min]	solubility kinetic at 24 h (physchem [5]; pH 2, aqueous buffer) [µg/mL]	solubility kinetic at 24 h (physchem [5]; pH 7.4, aqueous buffer) [µg/mL]	CC50 at 24 h (in vitro [6]; [16]) [µM]	CC50 at 24 h (in vitro [6]; [17]) [µM]	Data Mode (HeLa-ACE2 cells [7])	plasma stability remaining 60 min [8] [%]	Data Mode [9]	qAC50 [9]	EC50 (HeLa-ACE2 cells [10]; [18]) [µM]	EC50 (HeLa-ACE2 cells [10]; HeLa-ACE2, read-out: qAC50) [µM]	microsomal CLint at 0.5 μM (in vitro [11]) [µL/min/mg]	microsomal CLint at 0.5 μM (in vitro [12]) [µL/min/mg]	chromatographic logD (physchem [13])	ΔT m (PL^pro)	Papp at 5 h, 10 μM (in vitro [14]) [×10⁻⁶ cm/s]	also measured
C[C@H](c1cccc2ccccc12)N1CCC(C(=O)NCc2ccc(Cl)cc2)CC1 [Compound 12]	2310	104.049	decreasing	28.5	12.3	> 24.1	10.2 (≈ 25.1 µM)	14.5	14.4 ± 0.2	inactive	89.75	decreasing	1.447e-5	> 9.61	> 9.61	97.2	226	4.7	6.6 °C and 6.6 ± 0.2 °C	0.25	SI (average CC50/average EC50) (SARS-CoV-2 [1]; HeLa-ACE2): 4.8; S0 (SARS-CoV-2 [1]): 4.049; Sinf (SARS-CoV-2 [1]): -100; nHill (SARS-CoV-2 [1]): 4; SI (average CC50/average EC50) (SARS-CoV-2 [1]; supplement summary): 4.873; EC50 (SARS-CoV-2 [4]; Severe acute respiratory syndrome coronavirus 2, HeLa-ACE2, read-out: CoV-2 EC50): 2.97 µM; AC50 (SARS-CoV-2 [4]): 2.97 µM; EC50 (SARS-CoV-2 [4]; Severe acute respiratory syndrome coronavirus 2, HeLa-ACE2, read-out: SARS-CoV-2 EC50): 2.9 ± 0.2 µM; inhibition at 9.61 µM (SARS-CoV-2 [4]; Severe acute respiratory syndrome coronavirus 2, HeLa-ACE2, read-out: inhibition in the highest concentration tested): > 50%; EC50 (SARS-CoV-2 [4]; Severe acute respiratory syndrome coronavirus 2, HeLa-ACE2, read-out: qAC50): 2.97 µM; AC50 at 24 h (in vitro [6]): 14.5 µM; S0 ([9]; curve fit): 0.4208; Sinf ([9]; curve fit): -100; nHill ([9]; curve fit): 3.064
Cc1ccc(CNC(=O)C2CCN([C@@H](C)c3cccc4ccccc34)CC2)cc1 (stereo in doubt) [Compound 5]	239	105.451	decreasing (weakly active)	18.2	9.48	> 25	8.62 (≈ 22.3 µM)	> 39.8	> 39.8	inactive	33.79	inactive	> 3.984e-5	> 9.61	> 9.61	152	292	4.55	5.57 °C and 5.57 ± 0.09 °C	0.67	S0 (SARS-CoV-2 [1]): 5.451; Sinf (SARS-CoV-2 [1]): -100; nHill (SARS-CoV-2 [1]): 2.548; AC50 (SARS-CoV-2 [4]): > 9.61 µM; EC50 (SARS-CoV-2 [4]; [19]): > 9.61 µM; EC50 (SARS-CoV-2 [4]; [20]): > 9.61 µM
C[C@@H](c1cccc2ccccc12)N1CCC(C(=O)NCC2CCCCC2)CC1 (racemic) [Compound 11]	315	–	inactive	13.2	7.84	> 23.1	6.15 (≈ 16.2 µM)	> 39.8	> 39.8	inactive	47.10	inactive	> 3.984e-5	> 9.61	> 9.61	209	354	4.8	0.90 ± 0.07 °C	0.35	EC50 (SARS-CoV-2 [4]; [19]): > 9.61 µM; EC50 (SARS-CoV-2 [4]; [20]): > 9.61 µM
CC[C@@H](C)N1CCC(C(=O)NCc2ccc(OC)cc2)CC1 (racemic) [Compound 14]	224	–	–	301	42.3	> 18.4	> 18.3	–	–	–	30.29	–	–	–	–	< 12	65.6	1.61	1.20 ± 0.06 °C	0.77	metabolic stability (in words) [15]: improved stability
Cc1ccc(CNC(=O)C2CCN([C@H](C)c3cccc4ccccc34)CC2)cc1 [Compound 4]	385	103.282	decreasing (weakly active)	35.4	13	> 24.2	8.09 (≈ 20.9 µM)	> 39.8	> 39.8	inactive	58.47	inactive	> 3.984e-5	> 9.61	> 9.61	78.4	214	4.56	7.98 °C and 7.9 ± 0.6 °C	0.78	S0 (SARS-CoV-2 [1]): 3.282; Sinf (SARS-CoV-2 [1]): -100; nHill (SARS-CoV-2 [1]): 1.703; AC50 (SARS-CoV-2 [4]): > 9.61 µM; EC50 (SARS-CoV-2 [4]; [19]): > 9.61 µM; EC50 (SARS-CoV-2 [4]; [20]): > 9.61 µM
